{
  "source": "patent US4237273A",
  "about": "“Bis(nitrosoureido)-polyol derivatives” (Richter Gedeon Vegyeszeti Gyar RT, priority 1977, dated 1980)",
  "key": {"[1]": {"test_system": "BDF1 mice", "assay": "Acute toxicity (LD50), 21 days observation", "format": "in vivo", "conditions": "BDF1 mice of both sexes", "experimental": "Species: BDF1 mice of both sexes\nTreatment: a volume of 0.2 ml./10 g. body weight of a suspension of the tested compounds in water containing 2% of Tween-80 was used.\nNumber of animals: 10/dose\nObservation time: 21 days"}, "[2]": {"test_system": "L-120 leukemia", "assay": "Antitumour activity, L-1210 leukemia (Table 2)", "format": "in vivo, BDF1 mice", "conditions": "from the 2nd day; for Recovery (90 day survival): animals recovered/treated", "experimental": "(§1) The leukemia and ascites type tumours were transplanted intraperitoneally, using an amount of 10^5 -10^7 cells, while in the case of solid tumours, small pieces of tumours were implanted subcutaneously with a trocar. Treatment:\n(§2) Mice were treated with a volume of 0.1 ml./10 g. body-weight of a suspension of the tested compounds in water containing 2% of Tween-80, while rats were treated with a volume of 0.1 ml./100 g. bodyweight of a suspension of the tested compounds in water containing 5% of Tween-80.\n(§3) The ascites and leukemia-type tumours were evaluated with the exception of the Rausher leukemia by the increase of the life span and by complete recovery. [formula]\n(§4) Recovery=90 days of tumour free life after transplantation."}, "[3]": {"test_system": "P-388 leukemia", "assay": "Antitumour activity, P-388 leukemia (Table 2)", "format": "in vivo, BDF1 mice", "conditions": "12.0 mg./kg. 4× i.p., from the 2nd day; animals recovered/treated", "experimental": "as §1, §2, §3, §4"}, "[4]": {"test_system": "NK/Ly ascites lymphoma", "assay": "Antitumour activity, NK/Ly ascites lymphoma (Table 2)", "format": "in vivo, CFLP mice", "conditions": "from the 2nd day; for Recovery (90 day survival): animals recovered/treated", "experimental": "as §1, §2, §3, §4"}, "[5]": {"test_system": "Ehrlich acites carcinoma", "assay": "Antitumour activity, Ehrlich ascites carcinoma (Table 2)", "format": "in vivo, CFLP mice", "conditions": "1.5 mg./kg. 4× i.p., from the 2nd day; animals recovered/treated", "experimental": "as §1, §2, §3, §4"}, "[6]": {"test_system": "Rausher leukemia", "assay": "Antitumour activity, Rauscher leukemia, spleen weight (Table 3)", "format": "in vivo, CFLP mice", "conditions": "10.0 mg./kg. 6× i.p., from the 2nd day", "experimental": "as §1, §2\n(§5) In the case of solid tumours (Harding-Passey melanoma, S-180 and Yoshida sarcoma) the tumours were removed on the 8 to 14th day, and the inhibition was calculated by the weight of the tumours, using the following formula: [formula]\nA similar method was applied in the case of the Rauscher leukemia too, but the weight of the spleen was taken, instead of the tumour, in the formula mentioned above."}, "[7]": {"test_system": "Harding-Passey melanoma", "assay": "Antitumour activity, Harding-Passey melanoma, tumour weight (Table 3)", "format": "in vivo, CFLP mice", "conditions": "from the 4th day after transplantation", "experimental": "as §1, §2, §5"}, "[8]": {"test_system": "S-180 s.c. sarcoma", "assay": "Antitumour activity, S-180 s.c. sarcoma, tumour weight (Table 3)", "format": "in vivo, CFLP mice", "conditions": "from the 2nd day", "experimental": "as §1, §2, §5"}, "[9]": {"test_system": "Yoshida s.c. sarcoma", "assay": "Antitumour activity, Yoshida s.c. sarcoma, tumour weight (Table 3)", "format": "in vivo, CFY rats", "conditions": "from the 2nd day", "experimental": "as §1, §2, §5"}, "[10]": {"test_system": "Developed Yoshida s.c. sarcoma", "assay": "Recovery from developed Yoshida s.c. sarcoma, treated on 6th day (Table 4)", "format": "in vivo, CFY rats", "conditions": "50 mg./kg. 1× i.p. on 6th day; animals recovered/treated", "experimental": "as §1, §2, §4"}, "[11]": {"test_system": "Ehrlich ascites carcinoma", "assay": "Duration of activity: total cell number in Ehrlich ascites carcinoma", "format": "in vivo, Mice", "conditions": "i.p. on the 6th day after transplantation, equitoxic doses", "experimental": "(§6) Mice, being infected with Ehrlich ascites carcinoma, were treated intraperitoneally on the 6th day after transplantation with equitoxic doses of compounds 1, 2 and 6. The duration of the activity was investigated by determining the total cell number and the way of action by determining the mitosis index* and the thymidine index**. It could be shown that both compounds 1 and 2 inhibit the increase of the total cell number for 35 days, while a similar inhibition of the reference compound 6 lasts only for 17 days. As far as the quality of the activity is concerned, compounds 1 and 2 decrease the mitosis-index and the thymidine index in 24 hours by 90%, while in the case of compound 6 the decrease amounts only to 45 to 50%, and the maximum is reached on the 4th day."}, "[12]": {"test_system": "Ehrlich ascites carcinoma", "assay": "Way of activity: mitosis index in Ehrlich ascites carcinoma", "format": "in vivo, Mice", "conditions": "in 24 hours; i.p. on 6th day, equitoxic doses", "experimental": "as §6\n*mitosis index=number of dividing cells/1000 tumour cells"}, "[13]": {"test_system": "Ehrlich ascites carcinoma", "assay": "Way of activity: thymidine index (3H-thymidine incorporation into DNS) in Ehrlich ascites carcinoma", "format": "in vivo, Mice", "conditions": "in 24 hours; i.p. on 6th day, equitoxic doses", "experimental": "as §6\n**thymidine index=^3 H-thymidine incorporation into the DNS of the tumour cell."}},
  "data": [
    {"substance": "1,4-bis[3-(2-chloroethyl)-N-nitrosoureido]-1,4-dideoxy-D,L-threitol [Compound 1]", "values": [
      {"measurement": "LD50 value i.p.", "setting": "[1]; i.p.", "value": 80, "unit": "mg/kg"},
      {"measurement": "LD50 value p.o.", "setting": "[1]; p.o.", "value": 135, "unit": "mg/kg"},
      {"measurement": "Increase in life span", "setting": "[2]; 7.5 mg./kg. 1× i.p.", "value": 45, "unit": "%"},
      {"measurement": "Recovery (90 day survival)", "setting": "[2]; 7.5 mg./kg. 1× i.p.", "value": "2/8"},
      {"measurement": "Increase in life span", "setting": "[2]; 12.5 mg./kg. 1× p.o.", "value": 23, "unit": "%"},
      {"measurement": "Recovery (90 day survival)", "setting": "[2]; 12.5 mg./kg. 1× p.o.", "value": "1/8"},
      {"measurement": "Increase in life span", "setting": "[2]; 12.5 mg./kg. 3× p.o.", "value": 30, "unit": "%"},
      {"measurement": "Recovery (90 day survival)", "setting": "[2]; 12.5 mg./kg. 3× p.o.", "value": "3/8"},
      {"measurement": "Increase in life span", "setting": "[2]; 15.0 mg./kg. 1× i.p.", "value": 29, "unit": "%"},
      {"measurement": "Recovery (90 day survival)", "setting": "[2]; 15.0 mg./kg. 1× i.p.", "value": "3/8"},
      {"measurement": "Increase in life span", "setting": "[2]; 25.0 mg./kg. 1× p.o.", "value": 111, "unit": "%"},
      {"measurement": "Recovery (90 day survival)", "setting": "[2]; 25.0 mg./kg. 1× p.o.", "value": "3/8"},
      {"measurement": "Recovery (90 day survival)", "setting": "[2]; 25.0 mg./kg. 3× p.o.", "value": "6/8"},
      {"measurement": "Increase in life span", "setting": "[2]; 30.0 mg./kg. 1× i.p.", "value": 230, "unit": "%"},
      {"measurement": "Recovery (90 day survival)", "setting": "[2]; 30.0 mg./kg. 1× i.p.", "value": "7/8"},
      {"measurement": "Increase in life span", "setting": "[2]; 50.0 mg./kg. 1× p.o.", "value": 84, "unit": "%"},
      {"measurement": "Recovery (90 day survival)", "setting": "[2]; 50.0 mg./kg. 1× p.o.", "value": "4/8"},
      {"measurement": "Recovery (90 day survival)", "setting": "[3]", "value": "7/8"},
      {"measurement": "Recovery (90 day survival)", "setting": "[4]; 1.5 mg./kg. \"433\" i.p.", "value": "6/8"},
      {"measurement": "Recovery (90 day survival)", "setting": "[4]; 3.0 mg./kg. 4× i.p.", "value": "8/8"},
      {"measurement": "Increase in life span", "setting": "[4]; 30.0 mg./kg. 4× p.o.", "value": 89, "unit": "%"},
      {"measurement": "Recovery (90 day survival)", "setting": "[4]; 30.0 mg./kg. 4× p.o.", "value": "1/7"},
      {"measurement": "Recovery (90 day survival)", "setting": "[5]", "value": "6/8"},
      {"measurement": "Inhibition (spleen weight)", "setting": "[6]", "value": 78, "unit": "%"},
      {"measurement": "Inhibition (tumour weight)", "setting": "[7]; 10.0 mg./kg. 5× p.o.", "value": 96, "unit": "%"},
      {"measurement": "Inhibition (tumour weight)", "setting": "[7]; 24.0 mg./kg. 1× i.p.", "value": 81, "unit": "%"},
      {"measurement": "Inhibition (tumour weight)", "setting": "[8]; 3.0 mg./kg. 2× i.p.", "value": 43, "unit": "%"},
      {"measurement": "Inhibition (tumour weight)", "setting": "[8]; 10.0 mg./kg. 4× p.o.", "value": 42, "unit": "%"},
      {"measurement": "Inhibition (tumour weight)", "setting": "[8]; 12.0 mg./kg. 4× i.p.", "value": 80, "unit": "%"},
      {"measurement": "Inhibition (tumour weight)", "setting": "[9]; 12 mg./kg. 4× i.p.", "value": 99, "unit": "%"},
      {"measurement": "Inhibition (tumour weight)", "setting": "[9]; 24 mg./kg. 1× i.p.", "value": 76, "unit": "%"},
      {"measurement": "Recovery (90 day survival)", "setting": "[10]", "value": "5/7"},
      {"measurement": "Duration of inhibition of the increase of the total cell number", "setting": "[11]", "value": 35, "unit": "days"},
      {"measurement": "Decrease of the mitosis-index", "setting": "[12]", "value": 90, "unit": "%"},
      {"measurement": "Decrease of the thymidine index", "setting": "[13]", "value": 90, "unit": "%"}
    ]}
  ]
}
